Experimental data: article PMC5760710, “The evolution of substrate discrimination in macrolide antibiotic resistance enzymes” (Nature Communications, 2018)
Converted amounts (≈) assume the structure as drawn.

Experiments:
MphB = biological target: T1, MphB (Escherichia coli, UniProt A0A0H3EUF3); assay: biochemical; design: PK/LDH-coupled continuous assay of macrolide phosphorylation; steady-state kinetics, NADH absorbance; details: substrate inhibition
T1 construct: codon-optimized gene, N-terminal His tag in pET28a, expressed in E. coli BL21(DE3), Ni-NTA purified
Method: (§1) Steady-state kinetics for Mphs were measured using the continuous PK/LDH-coupled assay[27],[32],[36],[71]. Reactions were performed in 96-well plates (Nunc, Thermo Scientific) using Spectramax Plus384 (Molecular Devices) in duplicate. Individual reactions were 100 µL and contained 50 mM HEPES pH 7.5, 40 mM KCl, 10 mM MgCl2, 0.2 mM NADH, 3.5 mM PEP, and 4.8 U PK/LDH (pyruvate kinase/lactate dehydrogenase). […] For determining the Km for macrolides, GTP was maintained at 200 µM and macrolides were varied between 0.49 µM and 1000 µM. Enzyme efficiency varied considerably between substrates, and therefore some enzymes were used at different concentrations depending on the substrate in order to produce a linear range suitable for Km determination. These concentrations were as follows; MphB 140 nM (most substrates), MphB 36 nM (josamycin), MphI 45 nM (descladinose macrolides), MphI 1.44 µM (C3 cladinose macrolides), Azi_1.1 90 nM (all substrates), Ery_1 (all substrates), MphK 680 nM (all substrates), MphIS111R/T166E/P211L 90 nM (descladinose macrolides), MphIS111R/T166E/P211L 1.43 µM (C3 cladinose macrolides), MphIM40A/S111R/T166E 22 nM (descladinose macrolides), MphIM40A/S111R/T166E 430 nM (C3 cladinose macrolides), MphIS111R/T166E 22 nM (descladinose macrolides), MphIS111R/T166E 1.43 µM (C3 cladinose macrolides). Enzyme kinetics experiments were performed at least two independent times. Steady-state kinetics of Mphs

MphK = biological target: T2, MphK (Bacillus subtilis, UniProt P42242); design: PK/LDH-coupled continuous assay of macrolide phosphorylation; steady-state kinetics, NADH absorbance; details: substrate inhibition
T2 construct: full-length, His-tagged, expressed in E. coli BL21(DE3), Ni-NTA purified
T2 sequence (P42242 whole entry): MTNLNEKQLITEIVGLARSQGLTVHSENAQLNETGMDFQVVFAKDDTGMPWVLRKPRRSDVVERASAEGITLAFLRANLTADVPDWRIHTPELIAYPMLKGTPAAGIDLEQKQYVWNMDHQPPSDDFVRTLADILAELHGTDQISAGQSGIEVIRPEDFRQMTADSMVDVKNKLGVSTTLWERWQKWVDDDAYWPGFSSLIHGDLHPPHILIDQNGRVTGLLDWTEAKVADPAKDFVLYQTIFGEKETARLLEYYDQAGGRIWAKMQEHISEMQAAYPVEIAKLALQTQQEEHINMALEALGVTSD
Method: as §1, with “Steady-state kinetics of Mphs” left out

[1] = system: T3, E. coli BW25113 ΔbamBΔtolC; assay: microbe, parasite or virus in culture; details: Escherichia coli, BW25113, 24 h; empty vector
T3 construct: BW25113 ΔbamBΔtolC empty vector pGDP4
Method: (§2) mphB was codon optimized, synthetized as a gBlock (IDT) and cloned into pET28a with an N-terminal histidine tag. The codon optimized mphB sequence is in Supplementary Table 17. mphI was previously cloned into pET22b[36]. pGDP4 is a derivative of pET28a with the multiple-cloning site under the control of the constitutive lac promoter. mphI was subcloned into pGDP4 using the XbaI and XhoI restriction sites. E. coli was routinely cultured on LB-Lennox (Bioshop) at 37 °C overnight, and either 100 µg mL^−1 ampicillin or 50 µg mL^−1 kanamycin was used for plasmid selection. E. coli TOP10 (Invitrogen) was used for routine cloning experiments and susceptibility testing of mphs cloned into pGDP4. E. coli BL21(DE3) (Stratagene, USA)was used for protein overexpression experiments. E. coli BW25113 ΔbamBΔtolC is an antibiotic hypersensitive, and was used for susceptibility testing of Mphs cloning into pGDP4. Antibiotic susceptibility testing was performed according to the Clinical and Laboratory Standards Institute guidelines[74] for determining minimal inhibitory concentration (MIC) in 96-well plates (Sarstedt, Germany) in duplicate. MIC values were reproducible. A saline suspension of OD600 of 0.1 was made from 2–3 colonies of a fresh overnight, and diluted 1:200 into Mueller-Hinton Broth (BD Biosciences). […] Susceptibility assays were performed at least two independent times.

[2] = system: T4, E. coli BW25113 ΔbamBΔtolC (vector); assay: microbe, parasite or virus in culture; design: CLSI broth microdilution MIC in Mueller-Hinton broth; details: Escherichia coli, BW25113, 24 h
T4 construct: BW25113 ΔbamBΔtolC, empty vector
Method: as §2

Structure (SMILES)	Ki (MphB) [µM]	Ki (MphK) [µM]	MIC [1] [µg/mL]	MIC [2] [µg/mL]
CO[C@@H]1[C@@H](O[C@@H]2O[C@H](C)[C@@H](O[C@H]3C[C@@](C)(O)[C@@H](O)[C@H](C)O3)[C@H](N(C)C)[C@H]2O)[C@@H](CC=O)C[C@@H](C)[C@@H](O[C@H]2CC[C@H](N(C)C)[C@@H](C)O2)/C=C/C=C/C[C@@H](C)OC(=O)C[C@H]1O [Spiramycin]	39 ± 16	750 ± 160	2 (≈ 2.37 µM)	
CO[C@@H]1[C@@H](O[C@@H]2O[C@H](C)[C@@H](O[C@H]3C[C@@](C)(O)[C@@H](OC(=O)CC(C)C)[C@H](C)O3)[C@H](N(C)C)[C@H]2O)[C@@H](CC=O)C[C@@H](C)[C@@H](O)/C=C/C=C/C[C@@H](C)OC(=O)C[C@H]1OC(C)=O [josamycin]				2 to 4 (≈ 2.42 to 4.83 µM)
